Key:
[1] = In vitro penetration rate across human skin in modified Franz cells; assay type: in vitro ADME; settings: 3% suspension in ethanol/pH 7.4 phosphate buffer (0.2 M) 70/30
Method: Penetration rates of HPPs and their parent drugs through human skin were measured in vitro by modified Franz cells. A Franz cell had two chambers, the top sample chamber and the bottom receiving chamber. The human skin tissue (360-400 μm thick) that separated the top and the receiving chambers was isolated from the anterior or posterior thigh areas.
A compound tested (0.5 mL, 3% in a mixture of ethanol and phosphate buffer (0.2M, pH 7.4) (v/v, 70/30)) was added to the sample chamber of a Franz cell. The receiving chamber contains 2 ml of 2% bovine serum albumin in saline which was stirred at 600 rpm. The amount of the tested compound penetrating the skin was determined by high-performance liquid chromatography (HPLC) method.
The lowest detectable apparent flux values in this method was 1 μg/cm^2/h.

interferon production [2] = assay: Interferon inducing activity in guinea pigs (serum protection of fibroblasts from mengovirus); assay type: in vivo; settings: serum 18 hours after treatment
[3] = system: herpes simplex virus Type I; assay: Anti-Herpes activity, treated for 3 days before HSV infection; assay type: in vivo; settings: guinea pigs
Method: (§1) The evaluation of anti-Herpes activity of these prodrugs was carried out using the method described by Kern, et al. [Antimicrob. Agents Chemother. 14, 817, (1978)]. In each experiment, female guinea pigs (n=10) were anesthetized. […] Virus replication was monitored by determining the amount of virus recovered with vaginal swabs taken on day 7 after infection. […] The percent Lesion Inhibition was calculated as follows: 100-[(Sum of maximum lesion scores of treated group divided by the Sum of the scores of infected control)×100] (Table 5).

[4] = system: herpes simplex virus Type II; assay: as above; assay type: in vivo; settings: guinea pigs
Method: as §1

[5] = system: herpes simplex virus Type I; assay: Anti-Herpes activity, treated for 5 days, first treatment just after HSV infection; assay type: in vivo; settings: guinea pigs
Method: (§2) The evaluation of anti-Herpes activity of these prodrugs was carried out using the method described by Kern, et al. [Antimicrob. Agents Chemother. 14, 817, (1978)].
(§3) In the second experiment, female guinea pigs (n=10) were anesthetized. Herpes simplex virus (Type I or Type II, about 10^5 plaque forming units were used) was applied intravaginally to the guinea pigs using a cotton swab. […] Virus replication was monitored by determining the amount of virus recovered with vaginal swabs taken on day 7 after infection. External lesions were scored daily for ten days using the following scale: 0, no lesion; 1, redness and swelling; 2, a few small vesicles; 3, several large vesicles; 4, large ulcers and necrosis; and 5, paralysis. The percent Lesion Inhibition was calculated as follows: 100−[(Sum of maximum lesion scores of treated group divided by the Sum of the scores of infected control)×100] (Table 6).

[6] = system: herpes simplex virus Type II; assay: as above; assay type: in vivo; settings: guinea pigs
Method: as §2, §3

[7] = system: herpes simplex virus Type I; assay: Anti-Herpes activity, treated for 5 days, first treatment 5 days after HSV infection; assay type: in vivo; settings: guinea pigs
Method: as §2
(§4) In the third experiment, female guinea pigs (n=10) were anesthetized. The guinea pigs were then infected with herpes simplex virus (type I or Type II, about 10^5 plaque forming units were used) intravaginally using a cotton swab. […] External lesions were scored daily for ten days using the following scale: 0, no lesion; 1, redness and swelling; 2, a few small vesicles; 3, several large vesicles; 4, large ulcers and necrosis; and 5, paralysis. The percent Lesion Inhibition was calculated as follows: 100−[(Sum of maximum lesion scores of treated group divided by the Sum of the scores of infected control)×100] (Table 7).

[8] = system: herpes simplex virus Type II; assay: as above; assay type: in vivo; settings: guinea pigs
Method: as §2, §4

interferon production [9] = assay: Interferon inducing activity in guinea pigs (serum protection of fibroblasts from mengovirus); assay type: in vivo; settings: serum 18 hours after treatment; remark: listed apart in the source
Method: Without being bound by any mechanism, the ability to induce interferon production of the pro-drugs of the invention was evaluated in guinea pigs (n=10). Untreated guinea pigs provided controls.
Each test drug was administered to real back skin of a guinea pig at a specific dose of about 0.5-4.5 mg/kg respectively.
Each treated and control guinea pig was bled 18 hours after drug treatment and its serum was assayed for interferon activity. The serum was diluted and incubated with guinea pig fibroblast cells at 37° C. overnight in 96 well microtiter plates. The incubated cells were then challenged with an inoculum of mengovirus that was sufficient to kill untreated cells in two days. Two days after such challenge, the cells were examined both microscopically and after staining with crystal violet to determine whether the cells remained intact.
Table 4 contains the results of the study with activity/ml indicating the highest dilute on of serum that protected cells from virus challenge. Untreated guinea pigs provided controls.

[10] = 0.5 mg/kg once per day for 3 days before HSV infection
[11] = 1.5 mg/kg once per day for 3 days before HSV infection
[12] = 4.5 mg/kg once per day for 3 days before HSV infection
[13] = 0.5 mg/kg once per day for 5 days
[14] = 1.5 mg/kg once per day for 5 days
[15] = 4.5 mg/kg once per day for 5 days

## Cl.Nc1nc2ccccc2c2c1ncn2Cc1ccccc1 [1-benzyl-1H-imidazo[4,5-c]quinolin-4-amine hydrochloride, reference compound]
[1]
  In vitro Penetration Rate of Parent compounds (apparent flux): 0.005 mg/cm^2/h

## CCCCn1cnc2c(N)nc3ccccc3c21.Cl [1-butyl-1H-imidazo[4,5-c]quinolin-4-amine hydrochloride, reference compound]
[1]
  In vitro Penetration Rate of Parent compounds (apparent flux): 0.005 mg/cm^2/h

## CCCCCCn1cnc2c(N)nc3ccccc3c21.Cl [1-hexyl-1H-imidazo[4,5-c]quinolin-4-amine hydrochloride, reference compound]
Interferon production [2]; 0.5 mg/kg once
  Interferon level of the parent drug, intravaginal: 286 activity/ml
  Interferon level of the parent drug, transdermal: 178 activity/ml
Interferon production [2]; 1.5 mg/kg once
  Interferon level of the parent drug, intravaginal: 1,562 activity/ml
  Interferon level of the parent drug, transdermal: 565 activity/ml
Interferon production [2]; 4.5 mg/kg once
  Interferon level of the parent drug, intravaginal: 24,786 activity/ml
  Interferon level of the parent drug, transdermal: 1,945 activity/ml
[3]; [10]
  % Lesion inhibition of the parent drug, intravaginal, Herpes type I: 4%
  % Lesion inhibition of the parent drug, transdermal, Herpes type I: 2%
[3]; [11]
  % Lesion inhibition of the parent drug, intravaginal, Herpes type I: 16%
  % Lesion inhibition of the parent drug, transdermal, Herpes type I: 3%
[3]; [12]
  % Lesion inhibition of the parent drug, intravaginal, Herpes type I: 80%
  % Lesion inhibition of the parent drug, transdermal, Herpes type I: 42%
[4]; [10]
  % Lesion inhibition of the parent drug, intravaginal, Herpes type II: 5%
  % Lesion inhibition of the parent drug, transdermal, Herpes type II: 2%
[4]; [11]
  % Lesion inhibition of the parent drug, intravaginal, Herpes type II: 18%
  % Lesion inhibition of the parent drug, transdermal, Herpes type II: 3%
[4]; [12]
  % Lesion inhibition of the parent drug, intravaginal, Herpes type II: 81%
  % Lesion inhibition of the parent drug, transdermal, Herpes type II: 45%
[5]; [13]
  % Lesion inhibition of the parent drug, intravaginal, Herpes type I: 2%
  % Lesion inhibition of the parent drug, transdermal, Herpes type I: 2%
[5]; [14]
  % Lesion inhibition of the parent drug, intravaginal, Herpes type I: 11%
  % Lesion inhibition of the parent drug, transdermal, Herpes type I: 5%
[5]; [15]
  % Lesion inhibition of the parent drug, intravaginal, Herpes type I: 68%
  % Lesion inhibition of the parent drug, transdermal, Herpes type I: 43%
[6]; [13]
  % Lesion inhibition of the parent drug, intravaginal, Herpes type II: 2%
  % Lesion inhibition of the parent drug, transdermal, Herpes type II: 2%
[6]; [14]
  % Lesion inhibition of the parent drug, intravaginal, Herpes type II: 11%
  % Lesion inhibition of the parent drug, transdermal, Herpes type II: 6%
[6]; [15]
  % Lesion inhibition of the parent drug, intravaginal, Herpes type II: 71%
  % Lesion inhibition of the parent drug, transdermal, Herpes type II: 41%
[7]; [13]
  % Lesion inhibition of the parent drug, intravaginal, Herpes type I: 2%
  % Lesion inhibition of the parent drug, transdermal, Herpes type I: 2%
[7]; [14]
  % Lesion inhibition of the parent drug, intravaginal, Herpes type I: 2%
  % Lesion inhibition of the parent drug, transdermal, Herpes type I: 2%
[7]; [15]
  % Lesion inhibition of the parent drug, intravaginal, Herpes type I: 35%
  % Lesion inhibition of the parent drug, transdermal, Herpes type I: 18%
[8]; [13]
  % Lesion inhibition of the parent drug, intravaginal, Herpes type II: 2%
  % Lesion inhibition of the parent drug, transdermal, Herpes type II: 2%
[8]; [14]
  % Lesion inhibition of the parent drug, intravaginal, Herpes type II: 2%
  % Lesion inhibition of the parent drug, transdermal, Herpes type II: 2%
[8]; [15]
  % Lesion inhibition of the parent drug, intravaginal, Herpes type II: 37%
  % Lesion inhibition of the parent drug, transdermal, Herpes type II: 21%

## CCCCCCn1cnc2c(NC(=O)CN(C)C)nc3ccccc3c21.Cl [N,N-dimethylglycine 1-n-hexyl-1H-imidazo[4,5-c]quinolin-4-amide hydrochloride]
Interferon production [2]; 0.5 mg/kg once
  Interferon level of the HPP, intravaginal: 21,857 activity/ml
Interferon production [2]; 1.5 mg/kg once
  Interferon level of the HPP, intravaginal: 57,147 activity/ml
Interferon production [2]; 4.5 mg/kg once
  Interferon level of the HPP, intravaginal: 78,569 activity/ml
[3]; [10]
  % Lesion inhibition of the HPP, intravaginal, Herpes type I: 67%
  % Lesion inhibition of the HPP, transdermal, Herpes type I: 38%
[3]; [11]
  % Lesion inhibition of the HPP, intravaginal, Herpes type I: 91%
  % Lesion inhibition of the HPP, transdermal, Herpes type I: 67%
[3]; [12]
  % Lesion inhibition of the HPP, intravaginal, Herpes type I: 95%
  % Lesion inhibition of the HPP, transdermal, Herpes type I: 91%
[4]; [10]
  % Lesion inhibition of the HPP, intravaginal, Herpes type II: 68%
  % Lesion inhibition of the HPP, transdermal, Herpes type II: 40%
[4]; [11]
  % Lesion inhibition of the HPP, intravaginal, Herpes type II: 90%
  % Lesion inhibition of the HPP, transdermal, Herpes type II: 68%
[4]; [12]
  % Lesion inhibition of the HPP, intravaginal, Herpes type II: 95%
  % Lesion inhibition of the HPP, transdermal, Herpes type II: 93%
Interferon production [9]; 0.5 mg/kg once
  Interferon level of the HPP, transdermal: 11,756 activity/ml
Interferon production [9]; 1.5 mg/kg once
  Interferon level of the HPP, transdermal: 22,537 activity/ml
Interferon production [9]; 4.5 mg/kg once
  Interferon level of the HPP, transdermal: 61,758 activity/ml
[5]; [13]
  % Lesion inhibition of the HPP, intravaginal, Herpes type I: 67%
  % Lesion inhibition of the HPP, transdermal, Herpes type I: 37%
[5]; [14]
  % Lesion inhibition of the HPP, intravaginal, Herpes type I: 91%
  % Lesion inhibition of the HPP, transdermal, Herpes type I: 73%
[5]; [15]
  % Lesion inhibition of the HPP, intravaginal, Herpes type I: 95%
  % Lesion inhibition of the HPP, transdermal, Herpes type I: 90%
[6]; [13]
  % Lesion inhibition of the HPP, intravaginal, Herpes type II: 68%
  % Lesion inhibition of the HPP, transdermal, Herpes type II: 38%
[6]; [14]
  % Lesion inhibition of the HPP, intravaginal, Herpes type II: 90%
  % Lesion inhibition of the HPP, transdermal, Herpes type II: 75%
[6]; [15]
  % Lesion inhibition of the HPP, intravaginal, Herpes type II: 95%
  % Lesion inhibition of the HPP, transdermal, Herpes type II: 91%
[7]; [13]
  % Lesion inhibition of the HPP, intravaginal, Herpes type I: 31%
  % Lesion inhibition of the HPP, transdermal, Herpes type I: 28%
[7]; [14]
  % Lesion inhibition of the HPP, intravaginal, Herpes type I: 62%
  % Lesion inhibition of the HPP, transdermal, Herpes type I: 52%
[7]; [15]
  % Lesion inhibition of the HPP, intravaginal, Herpes type I: 83%
  % Lesion inhibition of the HPP, transdermal, Herpes type I: 82%
[8]; [13]
  % Lesion inhibition of the HPP, intravaginal, Herpes type II: 28%
  % Lesion inhibition of the HPP, transdermal, Herpes type II: 25%
[8]; [14]
  % Lesion inhibition of the HPP, intravaginal, Herpes type II: 65%
  % Lesion inhibition of the HPP, transdermal, Herpes type II: 55%
[8]; [15]
  % Lesion inhibition of the HPP, intravaginal, Herpes type II: 85%
  % Lesion inhibition of the HPP, transdermal, Herpes type II: 81%
